Experimental data: patent publication US20260216108A1, “PHARMACEUTICAL COMPOSITION CONTAINING A MITOPHAGY INDUCER” (HANGZHOU PHECDAMED CO., LTD., priority 2023, published 2026)

How the values were obtained:
Assay type in all cases: physicochemical
[1] = Compatibility test of API and auxiliary materials: appearance; conditions: opened
Excerpt: The experimental steps are as follows:
1. Taking out the sample according to the sampling time point set in the raw material and auxiliary material compatibility scheme (see Table 1).
2. Recording the appearance of the sample taken out. Appearance abnormalities include: (1) caking, (2) liquefaction, (3) discoloration.
(§1) The commonly used auxiliary materials for oral solid preparations are selected to mix with TJ0113 raw material in different proportions, placed under different conditions, and taken out at different time points respectively to judge the compatibility of the raw and auxiliary materials by using appearance, hygroscopic weight gain, content and relevant substances as indicators. According to the auxiliary material manual, the auxiliary materials used are commonly used auxiliary materials for oral solid preparations, and have been included in the current edition of the Chinese Pharmacopoeia, each auxiliary material has a stable nature. In order to objectively evaluate the compatibility of raw material and auxiliary materials used, the compatibility test was conducted on the raw material and each auxiliary material.
The ratio of the raw and auxiliary materials is set according to the “Basic Technical Guidance Principles for Research on Chemical Drug Preparations” and the preparation specifications, the auxiliary materials with a larger amount (such as lactose, microcrystalline cellulose) are mixed according to the ratio of main drug:diluent=1:5; the auxiliary materials with a moderate amount (such as croscarmellose sodium) are mixed according to the ratio of main drug:disintegrant=1:1; the auxiliary materials with a smaller amount (such as magnesium stearate) are mixed according to the ratio of main drug:lubricant=10:1. The manufacturer information and the ratio of raw and auxiliary materials for the compatibility experiment are shown in Table 1 below: […]

[2] = Compatibility test of API and auxiliary materials: hygroscopic weight gain; conditions: opened
Excerpt: 3. Detecting the hygroscopic weight gain of the sample.
as §1
The ratio of the raw and auxiliary materials is set according to the “Basic Technical Guidance Principles for Research on Chemical Drug Preparations” and the preparation specifications, the auxiliary materials with a larger amount (such as lactose, microcrystalline cellulose) are mixed according to the ratio of main drug:diluent=1:5; the auxiliary materials with a moderate amount (such as croscarmellose sodium) are mixed according to the ratio of main drug:disintegrant=1:1; the auxiliary materials with a smaller amount (such as magnesium stearate) are mixed according to the ratio of main drug:lubricant=10:1. The manufacturer information and the ratio of raw and auxiliary materials for the compatibility experiment are shown in Table 1 below:
(§2) Placing the samples under experimental conditions of high temperature (60° C.), high humidity (92.5% RH), acceleration (40° C./75% RH) and illumination (visible light 5500 Lux±500 Lux, near ultraviolet light 85 μw/cm2), […] Submitting the samples for relevant indicator testing (test items include appearance, hygroscopic weight gain, content and relevant substances), and comparing the test results with the control samples (raw material).

[3] = Compatibility test of API and auxiliary materials: content by HPLC; conditions: for Content: in % (unit assumed)
Protocol: (§3) 4. Using HPLC method to detect the content of the sample and relevant substances.
(§4) The parameters of the HPLC method for the detection of the content and relevant substances are detailed in Table 2 below.
as §2

[4] = Compatibility test of API and auxiliary materials: relevant substances (impurities) by HPLC; conditions: opened
Protocol: as §3, §4, §2

O=C(O)C[S+]([O-])c1cc(NS(=O)(=O)c2ccc(Br)cc2)c2ccccc2c1O (stereo not drawn) [API]
Appearance ([1]; 40° C./75% RH, 30 d): gray powder | Appearance ([1]; 92.5% RH, 30 d): gray powder | Appearance ([1]; illumination, 30 days): turned into red, and their lower layers did not change color | Hygroscopic weight gain ([2]; 40° C./75% RH, 10 d): −3.6 | Hygroscopic weight gain ([2]; 40° C./75% RH, 30 d): −4.2 | Hygroscopic weight gain ([2]; 92.5% RH, 10 d): 5.5 | Content ([3]; 40° C./75% RH (opened), 10 d): 98.9 | Content ([3]; 40° C./75% RH (opened), 30 d): 97.3 | Content ([3]; 60° C. (opened), 10 d): 100.1 | Content ([3]; 60° C. (opened), 30 d): 101.4 | Change of content ([3]; 60° C., 92.5% RH, 40° C./75% RH opened, 10 days illumination): did not change significantly | Content ([3]; 92.5% RH (opened), 10 d): 97.8 | Content ([3]; 92.5% RH (opened), 30 d): 99.9 | Content ([3]; Illumination (opened), 10 d): 100.8 | Content ([3]; Initial): 99.7 | % Impurities RRT0.37 ([4]; 40° C./75% RH, 0 d): <0.05% | % Impurities RRT0.46 ([4]; 40° C./75% RH, 0 d): <0.05% | % Impurities RRT0.89 ([4]; 40° C./75% RH, 0 d): 0.08% | % Impurities RRT1.10 ([4]; 40° C./75% RH, 0 d): <0.05% | % Impurities RRT1.16 ([4]; 40° C./75% RH, 0 d): 0.88% | % Impurities RRT1.20 ([4]; 40° C./75% RH, 0 d): 0.09% | % Impurities RRT1.24 ([4]; 40° C./75% RH, 0 d): <0.05% | % Impurities RRT1.29 ([4]; 40° C./75% RH, 0 d): 0.14% | % Impurities RRT1.33 ([4]; 40° C./75% RH, 0 d): 0.10% | % Impurities RRT1.37 ([4]; 40° C./75% RH, 0 d): 0.07% | % Impurities RRT1.41 ([4]; 40° C./75% RH, 0 d): <0.05% | % Impurities RRT1.43 ([4]; 40° C./75% RH, 0 d): <0.05% | % Impurities RRT1.73 ([4]; 40° C./75% RH, 0 d): <0.05% | % Impurities RRT1.74 ([4]; 40° C./75% RH, 0 d): 0.05% | % Impurities Total ([4]; 40° C./75% RH, 0 d): 1.41% | % Impurities RRT0.37 ([4]; 40° C./75% RH, 10 d): <0.05% | % Impurities RRT0.46 ([4]; 40° C./75% RH, 10 d): 0.11% | % Impurities RRT0.89 ([4]; 40° C./75% RH, 10 d): 0.06% | % Impurities RRT1.10 ([4]; 40° C./75% RH, 10 d): <0.05% | % Impurities RRT1.16 ([4]; 40° C./75% RH, 10 d): 1.23% | % Impurities RRT1.20 ([4]; 40° C./75% RH, 10 d): 0.06% | % Impurities RRT1.24 ([4]; 40° C./75% RH, 10 d): <0.05% | % Impurities RRT1.29 ([4]; 40° C./75% RH, 10 d): 0.08% | % Impurities RRT1.33 ([4]; 40° C./75% RH, 10 d): 0.07% | % Impurities RRT1.37 ([4]; 40° C./75% RH, 10 d): 0.05% | % Impurities RRT1.41 ([4]; 40° C./75% RH, 10 d): 0.09% | % Impurities RRT1.43 ([4]; 40° C./75% RH, 10 d): 0.07% | % Impurities RRT1.54 ([4]; 40° C./75% RH, 10 d): 0.06% | % Impurities RRT1.63 ([4]; 40° C./75% RH, 10 d): 0.21% | % Impurities RRT1.65/1.70 ([4]; 40° C./75% RH, 10 d): <0.05% | % Impurities RRT1.73 ([4]; 40° C./75% RH, 10 d): 0.59% | % Impurities RRT1.74 ([4]; 40° C./75% RH, 10 d): 0.06% | % Impurities Total ([4]; 40° C./75% RH, 10 d): 2.74% | % Impurities RRT0.46 ([4]; 40° C./75% RH, 30 d): 0.20% | % Impurities RRT0.89 ([4]; 40° C./75% RH, 30 d): 0.08% | % Impurities RRT1.10 ([4]; 40° C./75% RH, 30 d): <0.05% | % Impurities RRT1.16 ([4]; 40° C./75% RH, 30 d): 1.18% | % Impurities RRT1.20 ([4]; 40° C./75% RH, 30 d): 0.05% | % Impurities RRT1.24 ([4]; 40° C./75% RH, 30 d): <0.05% | % Impurities RRT1.29 ([4]; 40° C./75% RH, 30 d): 0.14% | % Impurities RRT1.33 ([4]; 40° C./75% RH, 30 d): 0.07% | % Impurities RRT1.37 ([4]; 40° C./75% RH, 30 d): 0.08% | % Impurities RRT1.41 ([4]; 40° C./75% RH, 30 d): 0.08% | % Impurities RRT1.43 ([4]; 40° C./75% RH, 30 d): 0.07% | % Impurities RRT1.54 ([4]; 40° C./75% RH, 30 d): <0.05% | % Impurities RRT1.63 ([4]; 40° C./75% RH, 30 d): 0.24% | % Impurities RRT1.65/1.70 ([4]; 40° C./75% RH, 30 d): <0.05% | % Impurities RRT1.73 ([4]; 40° C./75% RH, 30 d): 0.74% | % Impurities RRT1.74 ([4]; 40° C./75% RH, 30 d): 0.08% | % Impurities Total ([4]; 40° C./75% RH, 30 d): 3.01% | % Impurities RRT0.46 ([4]; 60° C., 0 d): <0.05% | % Impurities RRT0.89 ([4]; 60° C., 0 d): 0.08% | % Impurities RRT1.16 ([4]; 60° C., 0 d): 0.88% | % Impurities RRT1.20 ([4]; 60° C., 0 d): 0.09% | % Impurities RRT1.29 ([4]; 60° C., 0 d): 0.14% | % Impurities RRT1.33 ([4]; 60° C., 0 d): 0.10% | % Impurities RRT1.37 ([4]; 60° C., 0 d): 0.07% | % Impurities RRT1.41 ([4]; 60° C., 0 d): <0.05% | % Impurities RRT1.73 ([4]; 60° C., 0 d): <0.05% | % Impurities RRT1.74 ([4]; 60° C., 0 d): 0.05% | % Impurities Total ([4]; 60° C., 0 d): 1.41% | % Impurities RRT0.46 ([4]; 60° C., 10 d): <0.05% | % Impurities RRT0.89 ([4]; 60° C., 10 d): 0.08% | % Impurities RRT1.16 ([4]; 60° C., 10 d): 0.87% | % Impurities RRT1.20 ([4]; 60° C., 10 d): 0.07% | % Impurities RRT1.29 ([4]; 60° C., 10 d): 0.17% | % Impurities RRT1.33 ([4]; 60° C., 10 d): 0.08% | % Impurities RRT1.37 ([4]; 60° C., 10 d): 0.06% | % Impurities RRT1.41 ([4]; 60° C., 10 d): <0.05% | % Impurities RRT1.73 ([4]; 60° C., 10 d): <0.05% | % Impurities RRT1.74 ([4]; 60° C., 10 d): 0.07% | % Impurities Total ([4]; 60° C., 10 d): 1.40%
